Entries after “also recorded” stand apart in the source; their conditions may differ.
Assays:
DCAMKL-1 = assay: siRNA knockdown of DCAMKL-1 in HCT116 cells, real-time RT-PCR and Western blot; type: cell-based, human
Protocol: Cell culture. HCT116, HCT116 p21^−/− and SW480 human colon adenocarcinoma cell lines were obtained from the American Type Culture Collection (ATCC) and grown in Dulbecco's modified eagle's medium (DMEM) supplemented with 10% fetal bovine serum and 100 U/mL penicillin-streptomycin in a humidified chamber at 37° C. with 5% CO2.
Silencer RNA. DCAMKL-1 siRNA (si-DCAMKL-1) sequence targeting the coding region of DCAMKL-1 (Accession # NM_004734 (SEQ ID NO:1)) ([…] (SEQ ID NO:3)) and scrambled control siRNAs (si-Scr) not matching any of the human genes were obtained (Ambion Inc., Austin, Tex.) and transfected using Transfectol™ (Ambion Inc.).
(§1) Real-time reverse transcription-PCR analyses. Total RNA isolated either from cells or from human colon cancer cell tumor xenograft samples was subjected to reverse transcription with Superscript™ II RNase H—Reverse Transcriptase and random hexanucleotide primers (Invitrogen, Carlsbad, Calif.). The cDNA was subsequently used to perform Real-time PCR by SYBR chemistry (SYBR® Green I; Molecular Probes) for specific transcripts using gene specific primers and Jumpstart Taq DNA polymerase (Sigma-Aldrich, St. Louis, Mo.). […] The changes in mRNA were expressed as fold change relative to control with ±SEM value.
(§2) miRNA analysis. Total miRNA was isolated using mirVana™ miRNA isolation kit (Ambion Inc.). Total miRNA isolated either from cells or from human colon cancer cell tumor xenograft samples were subjected to reverse transcription with Superscript™ II RNase H—Reverse Transcriptase and random hexanucleotide primers (Invitrogen, Carlsbad, Calif.). The cDNA was subsequently used to perform Real-time PCR by SYBR chemistry (SYBR® Green I; Molecular Probes) for pri-let-7a transcript using specific primers and Jumpstart Taq DNA polymerase (Sigma-Aldrich, St. Louis, Mo.). […] The changes in pri-miRNA were expressed as fold change relative to control with ±SEM value. Primers used are: […]
(§3) Western Blot analysis. HCT116 and SW480 cells were cultured in a 6 well plates to 40% confluency and were transfected with si-DCAMKL-1 or si-Scr for 72 h. Cells or the tumor xenograft samples were lysed and the concentration of protein was determined by BCA protein assay kit (Pierce Biotechnology Inc., Rockford, Ill.). Forty μg of the protein was size separated in a 7.5-15% SDS polyacrylamide gel and transferred onto a nitrocellulose membrane with a semidry transfer apparatus (Amersham-Pharmacia, Piscataway, N.J.). The membrane was blocked in 5% non-fat dry milk for 1 h and probed overnight with a rabbit anti-DCAMKL-1 antibody (Abcam Inc., Cambridge, Mass.) or with rabbit anti-c-Myc antibody (Santa Cruz). Subsequently, the membrane was incubated with anti-rabbit or anti-goat IgG horseradish peroxidase-conjugated antibodies (Amersham-Pharmacia) for 1 h at room temperature. The 82 kDa DCAMKL-1 and 49 kDa c-Myc proteins were detected using ECL™ Western Blotting detection reagents (Amersham-Pharmacia). Actin (43 kDa), used as loading control was identified using a goat polyclonal IgG (Santa Cruz Biotechnology Inc., Santa Cruz, Calif.).

PICSC tumor xenografts = assay: PICSC generated isograft tumor growth in mice; type: in vivo; details: siRNA injected from day 15, 5 times at an interval of 3 days
Protocol: To determine whether targeted DCAMKL-1 downregulation and/or Notch inhibition affected […] generated isograft tumor growth, mice were treated with siRNA to DCAMKL-1 or the Notch inhibitor DAPT. After the tumors were allowed to develop (15 days), siRNA was injected a total of 5 times at an interval of 3 days as described earlier.

HCT116 tumor xenografts = assay: HCT116 tumor xenograft model in athymic nude mice, intratumoral treatment; type: in vivo
Text: as §1, §2
as §3, with “Forty μg of the protein was size separated in a 7.5-15% SDS polyacrylamide gel and transferred onto a nitrocellulose membrane with a semidry transfer apparatus (Amersham-Pharmacia, Piscataway, N.J.).” left out
Immunohistochemistry. Heat Induced Epitope Retrieval was performed on 4 μm formalin-fixed paraffin-embedded sections utilizing a pressurized Decloaking Chamber (Biocare Medical) in citrate buffer (pH 6.0) at 99° C. for 18 min. (a) Brightfield: Slides were incubated in 3% hydrogen peroxide, then normal serum and BSA at room temperature for 20 min. After incubation with primary antibody [DCAMKL-1 C-terminal (Abcam), anti-c-Myc (Santa Cruz Biotechnologies), L-FABP (Santa Cruz Biotechnologies)], the slides were incubated in peroxidase-conjugated EnVision™+polymer detection kit (DAKO). Slides were developed with Diaminobenzidine (Sigma). (b) Fluorescence: Slides were first incubated in Image-iT FX signal enhancer (Invitrogen), followed by normal serum and BSA at room temperature for 20 min.
Xenograft tumor model. (a) Liposomal preparation: siRNA was administered into the xenografts after incorporation into 1,2-Dioleoyl-sn-Glycero-3-Phosphocholine (DOPC) (Avanti Polar Lipids, Alabaster, Ala.). DOPC and siRNA were mixed in the presence of excess tertiary butanol at a ratio of 1:10 (w/w) (siRNA/DOPC). Tween 20 (Sigma-Aldrich) was added to the mixture at a ratio of 1:19 Tween 20:siRNA/DOPC. The mixture was vortexed and frozen in an acetone/dry ice bath and lyophilized. Before administration, the siRNA preparation was reconstituted in 0.9% sterile saline and injected at a dose of 50 μl (5 μM) per injection. (b) Tumor therapy: Female athymic nude mice (NCr-nu) were purchased from the National Cancer Institute-Frederick Cancer Research and Development Center (Frederick, Md.) and housed in specific pathogen-free conditions.

[1] = real-time RT-PCR, compared to control and si-Scr treated tumors

Sequence of DCAMKL-1 (O15075 other isoform, or with tags, fused parts or gaps): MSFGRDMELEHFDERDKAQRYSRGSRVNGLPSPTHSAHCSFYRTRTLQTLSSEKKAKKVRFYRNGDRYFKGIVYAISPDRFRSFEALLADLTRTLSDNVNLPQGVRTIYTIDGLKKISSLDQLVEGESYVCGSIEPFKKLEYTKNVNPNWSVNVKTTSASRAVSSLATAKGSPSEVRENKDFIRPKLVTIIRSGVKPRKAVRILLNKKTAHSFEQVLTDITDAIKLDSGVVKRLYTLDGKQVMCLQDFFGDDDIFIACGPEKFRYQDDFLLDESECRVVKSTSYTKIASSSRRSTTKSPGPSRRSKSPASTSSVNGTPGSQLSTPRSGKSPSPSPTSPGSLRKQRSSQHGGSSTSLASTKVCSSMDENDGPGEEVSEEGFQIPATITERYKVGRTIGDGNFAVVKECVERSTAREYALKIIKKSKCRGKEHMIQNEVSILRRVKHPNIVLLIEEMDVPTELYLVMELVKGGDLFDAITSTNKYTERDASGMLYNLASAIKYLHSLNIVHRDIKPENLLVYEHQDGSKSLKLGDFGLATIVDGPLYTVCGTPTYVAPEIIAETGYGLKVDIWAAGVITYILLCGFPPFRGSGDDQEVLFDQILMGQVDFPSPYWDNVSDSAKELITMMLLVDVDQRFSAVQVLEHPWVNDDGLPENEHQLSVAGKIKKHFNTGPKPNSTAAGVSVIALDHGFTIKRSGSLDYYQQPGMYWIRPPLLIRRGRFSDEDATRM

Substance: si-DCAMKL-1: siRNA targeting the coding region of DCAMKL-1 (NM_004734), sequence GGGAGUGAGAACAAUCUAC (SEQ ID NO:3) (chemistry not given here; listed as Homo sapiens)
- c-Myc mRNA and protein (DCAMKL-1): Reduction
- reduction in Notch-1 mRNA (DCAMKL-1): 40%
- Notch-1 and cleaved Notch-1 protein (DCAMKL-1; Western blot): dose dependent reduction
- DCAMKL-1 protein (DCAMKL-1; Western blot, 72 h transfection): reduction
- reduction in DCAMKL-1 mRNA expression (DCAMKL-1; real-time RT-PCR): > 70%
- increase in pri-let-7a miRNA (DCAMKL-1; real-time RT-PCR, compared to controls): 4 fold
- isograft tumor growth (PICSC tumor xenografts): growth arrest
- DCAMKL-1 protein in tumors (HCT116 tumor xenografts; Western blot): reduced expression
- Notch-1 and cleaved Notch-1 protein in tumors (HCT116 tumor xenografts; Western blot analysis): marked reduction
- c-Myc protein in tumors (HCT116 tumor xenografts; Western blot and immunohistochemical analyses): striking reduction
- reduction in Notch-1 mRNA in tumors (HCT116 tumor xenografts; compared to controls): 55%
- reduction in c-Myc mRNA in tumors (HCT116 tumor xenografts; compared to controls): 45%
- downregulation of DCAMKL-1 mRNA expression in tumors (HCT116 tumor xenografts; [1]): 55%
- increase in pri-let-7a miRNA expression in tumors (HCT116 tumor xenografts; [1]): > 3 fold
- tumor size / xenograft growth (HCT116 tumor xenografts; siRNA in liposome preparation injected into tumors from day 15, every third day, 5 doses): statistically significant reduction; also recorded: near complete tumor growth arrest
- tumor weight (HCT116 tumor xenografts; tumors excised at day 28, after 5 injections): significantly decreased
